Measurements taken from ChEMBL document CHEMBL1123805, “Synthesis of certain nucleoside methylenediphosphonate sugars as potential inhibitors of glycosyltransferases” (J Med Chem, 1987).
Calls of active or inactive are those of the source. The calls are words filed in the database; no cut-off is given here.

Experiments:
[1] = tested on: Vero; assay: In vitro antiviral activity was evaluated against vero cell lines infected with Parainfluenza virus type 3; non toxic at concentrations as high as 50000 uM; format: functional, cell-based; conditions: Chlorocebus sabaeus
[2] = tested on: Vero; assay: In vitro antiviral activity was evaluated against vero cell lines infected with visna virus; non toxic at concentrations as high as 50000 uM; format: functional, cell-based; conditions: Chlorocebus sabaeus
[3] = tested on: Vero; assay: In vitro antiviral activity was evaluated against vero cell lines infected with herpes simplex virus type-2; non toxic at concentrations as high as 50000 uM; format: functional, cell-based; conditions: Chlorocebus sabaeus
[4] = tested on: Vero; assay: In vitro antiviral activity was evaluated against vero cell lines infected with influenza virus; non toxic at concentrations as high as 50000 uM; format: functional, cell-based; conditions: Chlorocebus sabaeus
[5] = tested on: WIL2; assay: In vitro antitumor activity was evaluated against human B-lymphoblastic leukemia cell lines; None = no activity; format: functional, cell-based
[6] = tested on: L1210; assay: In vitro antitumor activity was evaluated against L1210 leukemia cell lines; None = no activity; format: functional, cell-based; conditions: Mus musculus
[7] = tested on: Vero; assay: In vitro antiviral activity was evaluated against vero cell lines infected with rhino virus; non toxic at concentrations as high as 50000 uM; format: functional, cell-based; conditions: Chlorocebus sabaeus
[8] = tested on: CCRF-CEM; assay: In vitro antitumor activity was evaluated against human T-lymphoblastic leukemia cell lines; None = no activity; format: functional, cell-based
[9] = species on record: Mus musculus; assay: Glycosyltransferase inhibitory activity up to a concentration of 50 ug/mL; Without significant activity
[10] = tested on: Vero; assay: In vitro antiviral activity was evaluated against vero cell lines infected with adenovirus type 2; non toxic at concentrations as high as 50000 uM; format: functional, cell-based; conditions: Chlorocebus sabaeus

## Nc1ncnc2c1ncn2C1O[C@H](COP(=O)(O)CP(=O)(O)OC2O[C@H](CO)[C@@H](O)[C@H](O)[C@H]2O)[C@@H](O)[C@H]1O (stereo not given in full)
[1]
  Activity: inactive
[2]
  Activity: inactive
[3]
  Activity: inactive
[4]
  Activity: inactive
[5]
  Cytotoxiciy: None
[6]
  Cytotoxiciy: None
[7]
  Activity: inactive
[8]
  Cytotoxiciy: None
[9]
  Activity: Without significant activity
[10]
  Activity: inactive
